Reference: patent US8173635B2, “Kinase inhibitors” (Vertex Pharmaceuticals Incorporated, priority 2007, dated 2012)

How the values were obtained:
Assay type in all cases: biochemical
PKC alpha kinase = PKC alpha kinase (Homo sapiens, UniProt P17252); assay: PKC alpha kinase inhibition, coupled-enzyme NADH absorbance assay (Ki); details: 130 μM ATP, 4.5 nM PKC alpha, 30° C.; read-out: Ki PKC alpha
PKC theta kinase = PKC theta kinase (Homo sapiens, UniProt Q04759); assay: PKC theta kinase inhibition, coupled-enzyme NADH absorbance assay (Ki); details: 240 μM ATP, 18 nM PKC theta, 30° C.; read-out: Ki PKC theta
PKC theta kinase, sequence (Q04759 whole entry): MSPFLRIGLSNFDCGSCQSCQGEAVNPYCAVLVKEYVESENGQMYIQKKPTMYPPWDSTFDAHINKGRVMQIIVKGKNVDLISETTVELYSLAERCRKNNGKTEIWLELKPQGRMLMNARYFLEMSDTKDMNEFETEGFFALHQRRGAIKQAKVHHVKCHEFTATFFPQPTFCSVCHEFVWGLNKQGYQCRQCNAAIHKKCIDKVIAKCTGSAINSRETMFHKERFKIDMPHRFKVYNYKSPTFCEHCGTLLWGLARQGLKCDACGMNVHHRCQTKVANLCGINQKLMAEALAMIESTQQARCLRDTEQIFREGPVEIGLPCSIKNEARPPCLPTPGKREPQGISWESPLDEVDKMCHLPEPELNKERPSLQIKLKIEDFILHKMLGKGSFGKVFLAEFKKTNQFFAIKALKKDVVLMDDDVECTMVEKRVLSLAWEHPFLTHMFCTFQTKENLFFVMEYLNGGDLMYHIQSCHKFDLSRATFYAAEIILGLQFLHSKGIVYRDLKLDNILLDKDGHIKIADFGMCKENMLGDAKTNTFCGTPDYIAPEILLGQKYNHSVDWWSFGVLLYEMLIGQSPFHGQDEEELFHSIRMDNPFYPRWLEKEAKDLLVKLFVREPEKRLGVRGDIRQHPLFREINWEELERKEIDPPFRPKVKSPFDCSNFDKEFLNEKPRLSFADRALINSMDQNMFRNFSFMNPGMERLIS
Outline: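 Enzyme and compound equilibrated 10 min at 30 °C before reaction in HEPES pH 7.5 buffer with MgCl2, NaCl, EDTA and Brij. Activity tracked as NADH loss at 340 nm through a coupled system. Initial-rate data fitted by non-linear regression to give Ki.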

PKC delta kinase = PKC delta kinase (Homo sapiens, UniProt Q05655); assay: PKC delta kinase inhibition, coupled-enzyme NADH absorbance assay (Ki); details: 150 μM ATP, 46 nM PKC delta, 30° C.; read-out: Ki PKC delta
PKC delta kinase, sequence (Q05655 whole entry): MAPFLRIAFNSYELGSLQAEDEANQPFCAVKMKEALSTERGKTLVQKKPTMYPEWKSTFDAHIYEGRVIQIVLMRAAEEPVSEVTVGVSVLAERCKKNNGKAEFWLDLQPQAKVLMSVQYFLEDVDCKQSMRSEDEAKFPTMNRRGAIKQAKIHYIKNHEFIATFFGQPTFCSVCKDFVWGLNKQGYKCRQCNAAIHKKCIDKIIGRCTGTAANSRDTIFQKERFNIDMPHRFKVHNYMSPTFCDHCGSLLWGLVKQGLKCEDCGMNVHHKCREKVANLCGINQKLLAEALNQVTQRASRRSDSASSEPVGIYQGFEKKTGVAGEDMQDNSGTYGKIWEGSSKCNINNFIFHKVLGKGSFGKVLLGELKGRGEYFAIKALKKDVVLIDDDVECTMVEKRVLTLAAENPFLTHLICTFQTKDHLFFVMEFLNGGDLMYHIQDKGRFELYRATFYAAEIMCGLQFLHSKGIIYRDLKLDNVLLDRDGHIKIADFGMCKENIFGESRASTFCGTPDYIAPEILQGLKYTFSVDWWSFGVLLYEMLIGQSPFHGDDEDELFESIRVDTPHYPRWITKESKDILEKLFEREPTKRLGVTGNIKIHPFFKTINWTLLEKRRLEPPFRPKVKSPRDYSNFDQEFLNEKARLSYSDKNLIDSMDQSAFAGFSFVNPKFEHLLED
Outline: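 Assay buffer was 100 mM HEPES pH 7.5, 10 mM MgCl2, 25 mM NaCl, 0.1 mM EDTA, 0.01% Brij. Enzyme buffer was equilibrated with compound in DMSO for 10 min at 30 °C. Ki values were derived by non-linear regression of initial rate data.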

Ki (PKC alpha kinase) [nM]	Ki (PKC theta kinase) [nM]	Ki (PKC delta kinase) [nM]	Compound
< 500	< 50	< 500	NCC1(c2cccc(-c3ccnc4[nH]nc(Cl)c34)c2)CCOCC1 [Compound 206]
> 1200	< 500	> 2000	OCC1(c2cccc(-c3ccnc4[nH]ncc34)c2)CC1 [Compound 243]
< 2800	< 500	> 2000	CCC(F)c1cc(-c2ccnc3[nH]ncc23)cc(C(C)(CC)CN)c1 (stereo not drawn) [Compound 158]
< 500	< 50	< 500	CC(C)=CCC(C)(CN)c1cccc(-c2ccnc3[nH]ncc23)c1 (stereo not drawn) [Compound 154]
< 500	< 50	< 2800	CCCc1cc(-c2ccnc3[nH]nc(Cl)c23)cc(C(C)(CC)CN)c1 (stereo not drawn) [Compound 210]
< 500	< 50	< 500	CC(CN)(Cc1cccnc1)c1cccc(-c2ccnc3[nH]ncc23)c1 (stereo not drawn) [Compound 171]
< 500	< 50	< 500	CCC(C)(CN)c1cc(CCO)cc(-c2ccnc3[nH]ncc23)c1 (stereo not drawn) [Compound 168]
< 2800	< 500	< 2800	CC#CCC(C)(C#N)c1cccc(-c2ccnc3[nH]ncc23)c1 (stereo not drawn) [Compound 104]
< 2800	< 50	< 2800	CC(C)(C#N)c1cc(CCCO)cc(-c2ccnc3[nH]ncc23)c1 [Compound 78]
> 2800	< 500	> 2800	C/C=C\c1cc(-c2ccnc3[nH]ncc23)cc(C(C)(C#N)CC)c1 (stereo not drawn) [Compound 94]
> 1200	> 700	> 2000	CC(C#N)(Cc1ccccn1)c1cccc(-c2ccnc3[nH]ncc23)c1 (stereo not drawn) [Compound 115]
> 1200	> 700	> 2000	FC(F)(F)c1n[nH]c2nccc(-c3cccc(C4(COCc5ccccc5)CC4)c3)c12 [Compound 289]
< 2800	< 2800	< 2800	c1cc(-c2ccnc3[nH]ncc23)cc(C2CCNCC2)c1 [Compound 230]
> 1200	> 700	> 2000	COc1ccc(C2(CN)CCC2)cc1-c1ccnc2[nH]ncc12 [Compound 222]
< 2800	< 500	< 2800	C=CCc1cc(-c2ccnc3[nH]ncc23)cc(C(C)(C)CN)c1 [Compound 52]
> 2800	< 2800	> 2800	COCCC(C)(C#N)c1cccc(-c2ccnc3[nH]ncc23)c1 (stereo not drawn) [Compound 96]
< 2800	< 50	< 500	CC1(c2cccc(-c3ccnc4[nH]ncc34)c2)CCNC1 (stereo not drawn) [Compound 195]
> 2800	< 500	> 2800	CC(C)(C#N)c1cc(-c2ccnc3[nH]ncc23)cc(N2CCC2)c1 [Compound 11]
< 500	< 50	< 500	CCC(C)(CN)c1cc(CCCO)cc(-c2ccnc3[nH]nc(Cl)c23)c1 (stereo not drawn) [Compound 208]
> 1200	< 500	> 2000	N#CCCc1cc(-c2ccnc3[nH]ncc23)cc(C2(C#N)CC2)c1 [Compound 240]
< 2800	< 500	< 2800	CCc1ccc(-c2ccnc3[nH]ncc23)cc1C(C)(C)CN [Compound 132]
> 2800	< 500	> 2800	CCCc1cc(-c2ccnc3[nH]ncc23)cc(C2(C#N)CCCC2)c1 [Compound 97]
< 2800	< 500	> 2800	COCC(C)(C#N)c1cccc(-c2ccnc3[nH]ncc23)c1 (stereo not drawn) [Compound 95]
< 500	< 50	< 500	COc1ccc(CC(C)(CN)c2cccc(-c3ccnc4[nH]ncc34)c2)cc1 (stereo not drawn) [Compound 174]
< 2800	< 500	< 2800	CC(C)(C#N)c1cc(N)cc(-c2ccnc3[nH]ncc23)c1 [Compound 13]
< 2800	< 50	< 500	COCCC(CN)c1cccc(-c2ccnc3[nH]nc(C(F)(F)F)c23)c1 (stereo not drawn) [Compound 284]

Ki (PKC alpha kinase) [nM]	Ki (PKC theta kinase) [nM]	Ki (PKC delta kinase) [nM]	Compound
< 2800	< 500	< 2800	NCC1(c2cccc(-c3ccnc4[nH]ncc34)c2)CCC(F)(F)CC1 [Compound 181]
> 1200	< 50	< 2800	OCC1(c2cccc(-c3ccnc4[nH]nc(C(F)(F)F)c34)c2)CCC1 [Compound 291]
> 1200	> 700	> 2000	COc1ccc(C2(C#N)CCC2)cc1-c1ccnc2[nH]ncc12 [Compound 221]
< 50	< 50	< 500	CCc1cc(-c2ccnc3[nH]nc(Cl)c23)cc(C(C)(CC)CN)c1 (stereo not drawn) [Compound 256]
> 1200	< 500	> 1200	N#CC(c1cccc(-c2ccnc3[nH]ncc23)c1)N1CCNCC1 (stereo not drawn) [Compound 321]
> 2800	> 2800	> 2800	C=C1CCc2ccc(-c3ccnc4[nH]ncc34)cc21 [Compound 202, 4-(3-Methylene-2,3-dihydro-1H-inden-5-yl)-1H-pyrazolo[3,4-b]pyridine]
> 1200	< 500	> 2000	CCC(C)(C#N)c1cc(CO)cc(-c2ccnc3[nH]ncc23)c1 (stereo not drawn) [Compound 121]
< 2800	< 500	< 2800	CCCc1cc(-c2ccnc3[nH]ncc23)cc(C(C)(C)CN)c1 [Compound 42]
< 500	< 50	< 500	CCC1(c2cccc(-c3ccnc4[nH]ncc34)c2)CNC(=O)O1 (stereo not drawn) [Compound 254]
< 500	< 500	< 2800	C#CCC(C)(C#N)c1cccc(-c2ccnc3[nH]ncc23)c1 (stereo not drawn) [Compound 91]
< 500	< 50	< 500	FC(F)C1(c2cccc(-c3ccnc4[nH]ncc34)c2)CCNC1 (stereo not drawn) [Compound 201]
> 1200	< 2800	> 2000	C=CCc1cc(-c2ccnc3[nH]ncc23)cc(C(C)(C)CC#N)c1 [Compound 217]
> 1200	< 50	< 500	NCC1(c2cccc(-c3ccnc4[nH]ncc34)c2)CC(F)(F)C1 [Compound 235]
< 2800	< 50	< 500	CCC(O)(c1cc(C)cc(-c2ccnc3[nH]nc(C(F)(F)F)c23)c1)C1CNC1 (stereo not drawn) [Compound 314]
> 1200	< 500	> 2000	N#CC(CCO)c1cccc(-c2ccnc3[nH]ncc23)c1 (stereo not drawn) [Compound 224]
< 500	< 50	< 500	N#CCC1(c2cccc(-c3ccnc4[nH]ncc34)c2)CCNC1 (stereo not drawn) [Compound 200]
< 500	< 50	< 500	N#CC1(c2cccc(-c3ccnc4[nH]nc(C(F)(F)F)c34)c2)CC1 [Compound 273]
< 2800	< 500	> 2000	CCC(C)(C#N)c1cc(CCCOC)cc(-c2ccnc3[nH]ncc23)c1 (stereo not drawn) [Compound 109]
< 500	< 50	< 500	CCC(CC)(CN)c1cccc(-c2ccnc3[nH]ncc23)c1 [Compound 47]
> 1200	< 50	> 1200	N#CC1(c2cc(CC(N)=O)cc(-c3ccnc4[nH]nc(C(F)(F)F)c34)c2)CC1 [Compound 329]
< 2800	< 500	< 2800	CC(C#N)(CC(F)F)c1cccc(-c2ccnc3[nH]ncc23)c1 (stereo not drawn) [Compound 99]
< 2800	< 50	< 500	COCCCC(C)(CN)c1cccc(-c2ccnc3[nH]ncc23)c1 (stereo not drawn) [Compound 169]
< 500	< 50	< 500	CC(CN)(c1cccc(-c2ccnc3[nH]ncc23)c1)C1CCCC1 (stereo not drawn) [Compound 46]
< 500	< 50	< 500	CCC(C)(CN)c1cc(-c2ccnc3[nH]ncc23)cc(C(F)F)c1 (stereo not drawn) [Compound 162]
< 50	< 50	< 50	CCC(C)(CN)c1cccc(-c2ccnc3[nH]nc(C4CC4)c23)c1 (stereo not drawn) [Compound 266]
< 500	< 50	< 500	N#CCC1(c2cccc(-c3ccnc4[nH]ncc34)c2)CNC1 [Compound 192]

Compound	Ki (PKC alpha kinase) [nM]	Ki (PKC theta kinase) [nM]	Ki (PKC delta kinase) [nM]
Cc1n[nH]c2nccc(-c3cc(F)cc(C4(CN)CCC4)c3)c12 [Compound 262]	< 500	< 50	< 500
Cc1cc(-c2ccnc3[nH]nc(C(F)(F)F)c23)cc(C2(CN)CCC2)c1 [Compound 215]	< 500	< 50	< 500
NCC1(c2cc(F)cc(-c3ccnc4[nH]nc(Br)c34)c2)CCC1 [Compound 261]	< 50	< 50	< 50
CCCc1cc(-c2ccnc3[nH]ncc23)cc(C2(CCN)CCC2)c1 [Compound 187]	> 1200	< 2800	> 2000
CCc1cc(-c2ccnc3[nH]nc(Cl)c23)cc(C2(CN)CCC2)c1 [Compound 211]	< 500	< 50	< 2800
CCc1n[nH]c2nccc(-c3cc(F)cc(C4(CN)CCC4)c3)c12 [Compound 263]	< 50	< 50	< 500
NCC1(c2cc(F)cc(-c3ccnc4[nH]nc(C5CC5)c34)c2)CCC1 [Compound 267]	< 500	< 50	< 500
